Assay: xn = mol fraction of the nth substance listed
Details: 100 kPa

CN(C)CCN(C)C + O
viscosity [mPa·s]
Details | 293.15 K | 303.15 K | 313.15 K | 323.15 K
x1 = 0.001 | 1.041 | 0.83 | 0.679 | 0.564
x1 = 0.01 | 1.375 | 1.143 | 0.941 | 0.732
x1 = 0.025 | 2.406 | 1.734 | 1.303 | 1.012
x1 = 0.05 | 5.033 | 3.269 | 2.032 | 1.409
x1 = 0.075 | 8.363 | 4.972 | 2.688 | 1.769
x1 = 0.1 | 11.53 | 6.033 | 3.292 | 2.114
x1 = 0.2 | 12.82 | 7.744 | 4.885 | 3.185
x1 = 0.3 | 7.906 | 5.945 | 4.23 | 3.011
x1 = 0.399 | 3.497 | 2.56 | 1.9 | 1.45
x1 = 0.5 | 1.887 | 1.456 | 1.117 | 0.904
x1 = 0.601 | 1.344 | 1.064 | 0.853 | 0.69
x1 = 0.7 | 1.066 | 0.881 | 0.724 | 0.585
x1 = 0.8 | 0.859 | 0.733 | 0.625 | 0.52
x1 = 0.9 | 0.715 | 0.63 | 0.554 | 0.473

COCCn1cc[n+](C)c1.C[C@@H](O)[C@H](N)C(=O)[O-] + O
x2 = 0.6192
Details | viscosity [mPa·s]
298.15 K | 766.5
303.15 K | 499.5

C[N+](C)(C)CCO.NCCS(=O)(=O)[O-] + O
viscosity [mPa·s]
Details | x1 = 3.04e-05 | x1 = 5.1e-05 | x1 = 7.04e-05 | x1 = 9.62e-05 | x1 = 0.0001978 | x1 = 0.0004282 | x1 = 0.0006357 | x1 = 0.0009005 | x1 = 0.001375 | x1 = 0.001632
293.15 K | 1.014 | 1.017 | 1.019 | 1.022 | 1.028 | 1.036 | 1.041 | 1.046 | 1.052 | 1.054
298.15 K | 0.904 | 0.907 | 0.91 | 0.913 | 0.922 | 0.932 | 0.939 | 0.946 | 0.954 | 0.958
303.15 K | 0.811 | 0.814 | 0.817 | 0.82 | 0.828 | 0.839 | 0.846 | 0.853 | 0.861 | 0.863
308.15 K | 0.737 | 0.742 | 0.745 | 0.749 | 0.76 | 0.771 | 0.776 | 0.781 | 0.786 | 0.789
313.15 K | 0.675 | 0.68 | 0.684 | 0.688 | 0.699 | 0.709 | 0.715 | 0.72 | 0.723 | 0.724
